From paper PMC3342997 (HIV Medicine, 2011)
≈ marks a conversion by molar mass, not a printed value. Where “and” joins values, the source holds several entries; their conditions need not be identical. Identical values can stand only once. Like-named read-outs stand apart in the source and are kept apart here.

What was measured:
[1] = in vivo; cited from earlier work
[2] = for Women with detectable emtricitabine concentrations at pre-dose sampling: limit of detection 0.0118 mg/L
[3] = female, human, in vivo
HIV-1 = details: combination antiretroviral regimen
wild-type HIV-1 = details: mean in vitro, wild-type HIV-1 viral replication; ref not given; cited from earlier work
clinical [4] = details: female, human, 200 mg; for Vd/F / half-life: in vivo; for AUC: 200 mg once daily, steady state, AUC0-24, noncompartmental
clinical [5] = details: female, human, in vivo, 200 mg
[6] = cited from earlier work
[7] = postpartum (n = 22), geometric least-squares mean (90% CI)
[8] = third trimester (n = 26), geometric least-squares mean (90% CI)

**Q.** With `Cc1ccnc2c1NC(=O)c1cccnc1N2C1CC1` [nevirapine] as the compound, how does the “Reduction of exposure during pregnancy” value [1] read?
**A.** 10–20%

**Q.** Which “Women with detectable emtricitabine concentrations at pre-dose sampling” value ([2]; antepartum) does the source give for `Nc1nc(=O)n([C@@H]2CS[C@H](CO)O2)cc1F` [emtricitabine] here?
**A.** All 26 women

**Q.** And the “Subjects achieving target AUC ≥7.0 mg h/L” value ([2]; during pregnancy, 15 of 26 subjects, 80% CI 45–70%)?
**A.** 58%

**Q.** What about the “C24 (24 hour post dose concentration)” value [2, 7] of the same compound?
**A.** 0.085 mg/L

**Q.** And the Cmax [2, 7]?
**A.** 1.4 (1.3–1.7) mg/L

**Q.** And the “C24 (24 hour post dose concentration)” value ([2]; postpartum (n = 22), geometric least-squares mean (90% CI), listed as Emtricitabine)?
**A.** 0.085 (0.07–0.1) mg/L

**Q.** What about the tmax ([2]; postpartum (n = 22), median (range)) of the same compound?
**A.** 2.0 (min–max: 1–6) hours

**Q.** And the “Subjects achieving target AUC ≥7.0 mg h/L” value ([2]; postpartum, 21 of 22 subjects, 80% CI 89–100%)?
**A.** 95%

**Q.** What about the “Women with detectable emtricitabine concentrations at pre-dose sampling” value ([2]; postpartum) of the same compound?
**A.** 18 of 22

**Q.** And the “Magnitude of the AUC decrease during pregnancy” value ([2]; pregnancy compared with postpartum)?
**A.** less than 20%

**Q.** And the “C24 (24 hour post dose concentration)” value [2, 8]?
**A.** 0.058 mg/L

**Q.** And the “Maternal plasma concentration at delivery” value [3]?
**A.** 0.15 mg/L

**Q.** What about the “Women with viral load <400 HIV-1 RNA copies/mL” value (HIV-1; postpartum) of the same compound?
**A.** 15 of 19 and 15

**Q.** And the “Women with viral load <400 HIV-1 RNA copies/mL” value (HIV-1; third trimester)?
**A.** 24 of 26

**Q.** What about the “Subjects with grade 3 adverse events of elevated bilirubin” value (human, in vivo) of the same compound?
**A.** three subjects

**Q.** And the Tolerability (human, in vivo)?
**A.** well tolerated

**Q.** What about the “Congenital anomalies in infants” value (lachrymal duct stenosis, grade 3 vesicoureteral reflux, deemed not related to the antiretroviral regimen) of the same compound?
**A.** two infants

**Q.** What about the “IC50 (drug concentration that suppresses viral replication by half)” value (wild-type HIV-1) of the same compound?
**A.** 4 ng/mL (≈ 0.0162 µM)

**Q.** And the IC90 (wild-type HIV-1)?
**A.** 0.051 mg/L (≈ 0.206 µM)

**Q.** What about the Vd/F (clinical [4]; [7]) of the same compound?
**A.** 301 L

**Q.** What about the Vd/F (clinical [4]; [8]) of the same compound?
**A.** 334 L

**Q.** What about the half-life (clinical [4]; t1/2, postpartum (n = 22), geometric least-squares mean (90% CI)) of the same compound?
**A.** 606 min

**Q.** And the half-life (clinical [4]; t1/2, third trimester (n = 26), geometric least-squares mean (90% CI))?
**A.** 558 min

**Q.** And the Cmax (clinical [4]; plasma, oral)?
**A.** 1400 ng/mL

**Q.** What about the tmax (clinical [4]; plasma, oral) of the same compound?
**A.** 2 h

**Q.** What about the AUC (clinical [4]; plasma, oral, postpartum (n = 22), geometric least-squares mean (90% CI)) of the same compound?
**A.** 9700 ng·h/mL

**Q.** What about the AUC (clinical [4]; plasma, oral, third trimester (n = 26), geometric least-squares mean (90% CI)) of the same compound?
**A.** 8000 ng·h/mL

**Q.** And the concentration at 24 h (clinical [4]; plasma, oral, C24 (24 hour post dose concentration), postpartum (n = 22), geometric least-squares mean (90% CI))?
**A.** 85 ng/mL

**Q.** What about the concentration at 24 h (clinical [4]; plasma, oral, C24 (24 hour post dose concentration), third trimester (n = 26), geometric least-squares mean (90% CI)) of the same compound?
**A.** 58 ng/mL

**Q.** What about the concentration at 24 h (clinical [4]; plasma, oral, Lowest C24, postpartum) of the same compound?
**A.** 70 ng/mL

**Q.** And the Kp (clinical [5])?
**A.** 1.2

**Q.** What about the AUC ([6]; in vivo, 200 mg) of the same compound?
**A.** 10 mg·h/L

**Q.** And the Cmax ([6]; in vivo)?
**A.** 1.8 ± 0.7 mg/L

**Q.** What about the Minimum adult concentration ([6]; in vivo) of the same compound?
**A.** 0.077 mg/L

**Q.** What about the Protein binding ([6]; in vivo) of the same compound?
**A.** low protein binding

**Q.** And the CL/F ([6]; nonpregnant adults, 200 mg once daily)?
**A.** 18.1 L/h
